Laboratory results reported in ChEMBL document CHEMBL6083285 (J Med Chem, 2024).
pIC50: −log10 of the molar value. Values after ≈ are worked out from the molar mass of the structure shown. Active and inactive are the calls of the source. No cut-off for these calls is given here.

What was measured:
[1] = Inhibition of NLRP3 inflammasome activation mediated pyroptosis in LPS-stimulated human THP-1 cells preincubated for 3 hrs followed by nigericin addition and measured after 1 hrs by resazurin dye based assay; format: cell-based
[2] = Inhibition of NLRP3 inflammasome activation in LPS-stimulated human whole blood assessed as reduction in IL-1beta release preincubated for 3 hrs followed by nigericin addition and measured after 1 hrs by Alphalisa method; format: tissue-based
[3] = Metabolic stability in pooled human liver microsomes assessed as intrinsic clearance at 1 uM measured upto 45 mins in presence of NADPH by UPLC-MS/MS analysis; format: ADME, Microsome; conditions: read-out: CLH
[4] = Lipophilicity, logD of compound at pH 7.4; format: physicochemical; conditions: buffer
[5] = Binding affinity to NanoLuc-tagged NLRP3 (unknown origin) expressed in HEK293 cells incubated for 2 hrs by NanoBRET assay; format: cell-based; conditions: Homo sapiens, HEK293, 2 h
[6] = test system: MDR1; assay: Permeability across apical to basolateral side in pig LLC-PK1 cells transfected with MDR1; format: ADME, cell-based, Sus scrofa; conditions: read-out: permeability
[7] = Volume of distribution at steady state in male Sprague-Dawley rat at 10 mg/kg, po or 1 mg/kg, iv measured after 24 hrs by LC-MS analysis; format: ADME, organism-based; conditions: in vivo
[8] = test system: Mus musculus; assay: In vivo inhibition of NLRP3 inflammasome activation in LPS/ATP-induced acute inflammatory mouse model assessed as reduction in IL-1beta release in plasma at 100 mg/kg, po preadministered with compound for 1 hrs followed by LPS stimulation for 2 hrs and measured after 30 mins of ATP addition; format: functional, organism-based; conditions: time 3.5 hrs
[9] = Protein binding in rat plasma assessed as unbound fraction at 5 uM incubated for 4 hrs by UPLC-MS analysis; format: ADME, cell-free
[10] = Half-life in male Sprague-Dawley rat at 10 mg/kg, po or 1 mg/kg, iv measured after 24 hrs by LC-MS analysis; format: ADME, organism-based; conditions: in vivo
[11] = Protein binding in human plasma assessed as unbound fraction at 5 uM incubated for 4 hrs by UPLC-MS analysis; format: ADME, cell-free
[12] = Metabolic stability in rat hepatocytes assessed as intrinsic clearance measured per 10^6 cells at 100 uM incubated upto 60 mins by UPLC-MS/MS analysis; format: ADME, cell-based, Hepatocyte; conditions: read-out: CLH
[13] = Oral bioavailability in male Sprague-Dawley rat at 10 mg/kg measured after 24 hrs by LC-MS analysis; format: ADME, organism-based; conditions: in vivo
[14] = test system: MDR1; assay: Efflux ratio of permeability across apical to basolateral side in pig LLC-PK1 cells transfected with MDR1; format: ADME, cell-based, Sus scrofa
[15] = Kinetic solubility of compound; format: physicochemical; conditions: read-out: Kinetic_solubility
[16] = Metabolic stability in human hepatocytes assessed as intrinsic clearance measured per 10^6 cells at 100 uM incubated upto 60 mins by UPLC-MS/MS analysis; format: ADME, cell-based, Hepatocyte; conditions: read-out: CLH
[17] = Metabolic stability in pooled rat liver microsomes assessed as intrinsic clearance at 1 uM measured upto 45 mins in presence of NADPH by UPLC-MS/MS analysis; format: ADME, Microsome; conditions: read-out: CLH
[18] = Metabolic stability in mouse hepatocytes assessed as intrinsic clearance measured per 10^6 cells at 100 uM incubated upto 60 mins by UPLC-MS/MS analysis; format: ADME, cell-based, Hepatocyte; conditions: read-out: CLH
[19] = Metabolic stability in pooled mouse liver microsomes assessed as intrinsic clearance at 1 uM measured upto 45 mins in presence of NADPH by UPLC-MS/MS analysis; format: ADME, Microsome; conditions: read-out: CLH
[20] = Protein binding in mouse plasma assessed as unbound fraction at 5 uM incubated for 4 hrs by UPLC-MS analysis; format: ADME, cell-free
[21] = species: Homo sapiens; assay: Selectivity ratio of IC50 for inhibition of NLRP3 inflammasome activation in LPS-stimulated human whole blood assessed as reduction in IL-1beta release to IC50 for inhibition of NLRP3 inflammasome activation mediated pyroptosis in LPS-stimulated human THP-1 cells

SMILES	pIC50 [2]	pIC50 [1]	other results
O=C1Nc2c(ccc3c2CCC3)-c2ccnc(c2)OCCCCn2ccc(n2)S(=O)(=O)N1	6.11	6.75	
COc1cc(-c2ccc3c(c2NC(=O)NS(=O)(=O)c2nn(C(C)C)cc2F)CCC3)ccn1	6.64	8.10	
COc1cc(-c2ccc3c(c2NC(=O)NS(=O)(=O)c2cnn(C(C)C)c2)CCC3)ccn1	6.47	7.80	microsomal CLint at 1 µM [3]: 45 µL/min/mg
COc1cc(-c2ccc3c(c2NC(=O)NS(=O)(=O)c2ccn(C(C)C)n2)CCC3)ccn1	6.39	7.29	microsomal CLint at 1 µM [3]: 12 µL/min/mg; logD [4]: 0.09
CC(C)(O)c1coc(S(=O)(=O)NC(=O)Nc2c3c(cc4c2CCC4)CCC3)c1	6.11	7.19	pIC50 [5]: 6.00
CC1(C)COc2cc(ccn2)-c2ccc3c(c2CC(=O)NS(=O)(=O)c2ccn1n2)CCC3		4.80	
CC(C)c1cccc2c1CC(=O)NS(=O)(=O)c1cn(cn1)C(C)(C)COc1cc-2ccn1		6.14	
O=C1Nc2c(ccc3c2CCC3)-c2ccnc(c2)OCCn2ccc(n2)S(=O)(=O)N1	6.92	7.20	
CC(C)n1ccc(S(=O)(=O)NC(=O)Nc2c(-c3ccnc(OC4CCN(C)C4)c3)ccc3c2CCC3)n1 (stereo not given)		6.10	logD [4]: -0.5
O=C1Nc2c(ccc3c2CCC3)-c2ccnc(c2)OCCCCCCn2ccc(n2)S(=O)(=O)N1	5.80	6.67	
COc1cc(-c2ccc3c(c2NC(=O)NS(=O)(=O)c2ccnc(C(C)C)c2)CCC3)ccn1	5.79	7.64	
CC(C)n1ccc(S(=O)(=O)NC(=O)Nc2c(-c3ccnc(Oc4ccccc4)c3)ccc3c2CCC3)n1	5.23	7.23	Ratio IC50 [21]: 16; logD [4]: 1.2
CC(C)c1cccc2c1CC(=O)NS(=O)(=O)c1ccn(n1)C(C)(C)COc1cc-2ccn1		5.77	

Further lines, with some results ahead:

pIC50 [2]	SMILES	pIC50 [1]	other results
6.65	CC(C)c1c(F)ccc2c1CC(=O)NS(=O)(=O)c1cn(nc1F)C(C)(C)COc1cc-2ccn1	7.89	Papp A→B [6]: 0.57 ×10⁻⁶ cm/s; Vdss [7]: 1.12 L/kg; inhibition [8]: Active; fraction unbound at 4 h, 5 µM [9]: 0.003; half-life [10]: 54 min; microsomal CLint at 1 µM [3]: < 7.7 µL/min/mg; fraction unbound at 4 h, 5 µM [11]: 0.023; hepatocyte CLint at 100 µM [12]: < 10.3 µL/min/1e6 cells; bioavailability [13]: 36%; efflux ratio [14]: 6.4; logD [4]: 1.02; solubility kinetic [15]: 371 µg/mL (≈ 756 µM); hepatocyte CLint at 100 µM [16]: < 10.3 µL/min/1e6 cells; microsomal CLint at 1 µM [17]: 3.7 µL/min/mg; hepatocyte CLint at 100 µM [18]: < 10.3 µL/min/1e6 cells; microsomal CLint at 1 µM [19]: 10.2 µL/min/mg; fraction unbound at 4 h, 5 µM [20]: 0.0126
6.57	CC1(C)COc2cc(ccn2)-c2ccc3c(c2NC(=O)NS(=O)(=O)c2ccn1n2)CCC3	7.07	
6.36	CC(C)c1cccc2c1CC(=O)NS(=O)(=O)c1cnn(c1)C(C)(C1CC1)COc1cc-2ccn1 (stereo not given)	7.51	
6.99	Cc1cc2c(c3c1-c1ccnc(c1)OCC(C)(C)n1cc(F)c(n1)S(=O)(=O)NC(=O)N3)CCC2	8.40	
6.31	CC(C)c1cc(F)cc2c1CC(=O)NS(=O)(=O)c1cnn(c1)C(C)(CO)COc1cc-2ccn1 (stereo not given)	7.08	
6.62	CCC1(C)COc2cc(ccn2)-c2cccc(C(C)C)c2CC(=O)NS(=O)(=O)c2cnn1c2 (stereo not given)	6.56	
6.69	CC(C)c1cccc2c1CC(=O)NS(=O)(=O)c1cnn(c1)C1(CCC1)COc1cc-2ccn1	7.28	
